# According to patent publication US20190022092A1, “Therapeutic Combinations of a BTK Inhibitor and a GITR Binding Molecule, a 4-1BB Agonist, or an OX40 Agonist” (Acerta Pharma B.V., priority 2015, published 2019):
# What was measured:
# [1] = test system: BCR; activation markers CD69 and CD86; assay: In vivo potency: BCR stimulated with IgM, CD69 and CD86 expression by flow cytometry; conditions: mice gavaged, sacrificed 3 hours post-dose, compared with ibrutinib
# Protocol: Mice were gavaged at increasing drug concentration and sacrificed at one time point (3 hours post-dose). BCR is stimulated with IgM and the expression of activation markers CD69 and CD86 are monitored by flow cytometry to determine EC50 values.
# CD8+ T cell [2] = assay: Cytotoxicity assay for CD8+ T cell function; assay type: cell-based; conditions: relative to vehicle
# Source text: FIG. 38 illustrates the results of the cytotoxicity assay for CD8^+ T cell function.
# CD8+ T cell [3] = assay: IFN-γ level measurements for CD8+ T cell function; assay type: cell-based; conditions: relative to vehicle
# Source text: FIG. 39 illustrates the results of IFN-γ level measurements for CD8^+ T cell function.
# [4] = test system: 80 known pharmacologic targets (G-protein-coupled receptors, nuclear receptors, proteases, ion channels); assay: Binding assays on 80 known pharmacologic targets at 10 μM; conditions: screened at 10 μM
# Source text: Formula (2) was well tolerated in standard in vivo Good Laboratory Practices (GLP) studies of pharmacologic safety.
# [5] = test system: EGFR phosphorylation (p-EGFR Y1069) in A431 cells; assay: EGF-induced EGFR phosphorylation in A431 cells (phosphoflow); assay type: cell-based, human
# Protocol: Phosphoflow cytometry was performed with p-EGFR (Y1069). MFI values were normalized so that 100% represents the p-EGFR level in stimulated cells without inhibitor, while 0% represents the unstimulated/no drug condition.
# CYP3A4 = CYP3A4 (Homo sapiens, UniProt P08684); assay: In vitro loss of parent drug as catalyzed by CYPs; assay type: in vitro ADME
# [6] = In vitro metabolism in hepatocytes with 14C-labeled drug; assay type: in vitro ADME, and human; conditions: mouse, rat, dog, rabbit, monkey, human hepatocytes
# CYP enzymes = assay: Nonclinical CYP interaction studies; assay type: in vitro ADME
# NSCLC (KrasLA2) = assay: KrasLA2 genetic tumor model of NSCLC; assay type: in vivo; conditions: KrasLA2 mice, 15 mg/kg
# Source text: The model is designed to have sporadic expression in single cells of G12D mutant Kras off its own promoter triggered by spontaneous intrachromosomal recombination. Johnson, et al., Nature 2001, 410, 1111-16. While the mutant Kras protein is expressed in a few cells in all tissues, tumor development is seen only in the lung at high penetrance.
# BTK = biological target: T1, BTK (Mus musculus, UniProt P35991); assay: Molecular probe assay of BTK occupancy in MDSCs of tumor bearing PDA mice; assay type: in vivo; conditions: 15 mg/kg BID, Day 8, 4 hours post dose
# T1 construct: endogenous in cells; host or cells: granulocytic and monocytic MDSCs from tumor-bearing PDA mice
# Source text: A molecular probe assay was used to calculate the percent irreversible occupancy of total BTK.
# [7] = test system: NK cells co-cultured with antibody-coated DHL-4 or HER18 target cells; assay: NK cell lytic granule release (CD107a) by flow cytometry; assay type: cell-based, human; conditions: 1 μM; HER18 targets, trastuzumab 10 μg/mL
# Source text: Prior to assay, HER18 cells were harvested using trypsin-EDTA, washed with phosphate-buffered saline (PBS) containing 5% serum and viable cells were counted. For culture of primary target cells, peripheral blood from CLL patients was subject to density centrifugation to obtain peripheral blood mononuclear cells (PBMC). Cell preparations were washed and then subject to positive selection of CD5^+CD19^+ CLL cells using magnetic beads (MACS, Miltenyi Biotech). Cell preparations were used fresh after selection. NK cells from CLL patients and healthy volunteers were enriched from peripheral blood collected in sodium citrate anticoagulant tubes and then subject to density centrifugation. Removal of non NK cells was performed using negative selection by MACS separation. […]
# Lytic granule release was determined as follows. […] Degranulation was evaluated via by flow cytometery by externalization of CD107a, a protein normally present on the inner leaflet of lytic granules, and gating on NK cells (CD3-CD16^+ lymphocytes). The percentage of CD107a positive NK cells was quantified by comparison with a negative control (isotype control, unstained cells/FMO). Control cultures (NK cells cultured without target cells, or NK, target cell co-cultures in the absence of appropriate monoclonal antibody) were also evaluated; all experiments were performed in triplicate.
# [8] = test system: NK cell lysis of primary CLL cells; assay: Rituximab ADCC 51Cr release assay, primary autologous CLL targets; assay type: cell-based, human; conditions: 1 μM; E:T 25:1
# Source text: Cell culture conditions were as follows. […] The HER18 cells were maintained in DEM supplemented with fetal bovine serum, penicillin-streptomycin and. Prior to assay, HER18 cells were harvested using trypsin-EDTA, washed with phosphate-buffered saline (PBS) containing 5% serum and viable cells were counted. For culture of primary target cells, peripheral blood from CLL patients was subject to density centrifugation to obtain peripheral blood mononuclear cells (PBMC). Cell preparations were washed and then subject to positive selection of CD5^+CD19^+ CLL cells using magnetic beads (MACS, Miltenyi Biotech). Cell preparations were used fresh after selection. NK cells from CLL patients and healthy volunteers were enriched from peripheral blood collected in sodium citrate anticoagulant tubes and then subject to density centrifugation. Removal of non NK cells was performed using negative selection by MACS separation. Freshly isolated NK cells were washed three times, enumerated, and then used immediately for ADCC assays.
# ADCC assays were performed as follows. Briefly, target cells (Raji or primary CLL) were labeled by incubation at 37° C. with 100 μCi ^51Cr for 4 hours prior to co-culture with NK cells. […] Supernatants were harvested and ^51Cr release was measured by liquid scintillation counting. […]
# CD8+ T cells = assay: CD8+ T cell viability on anti-TCR/anti-CD28 coated wells; assay type: cell-based; conditions: 4 days, neutral culture conditions
# Protocol: Total T cells were plated on anti-TCR and anti-CD28 coated wells in the presence of both BTK inhibitors. Neutral culture conditions were used that will not polarize T cells to a helper lineage. […] Statistical significance was calculated using the Mann Whitney T-test.
# CLL = assay: Clinical study of Formula (2) in CLL (ALC, SPD, PFS, immune cells, apoptosis, chemokines); conditions: CLL patients, relative to ibrutinib (Byrd et al. 2013)
# Source text: Trendlines are shown for % change in MDSC (monocytic) level and % change in NK cell level.
# Chain of CYP3A4 (P08684 whole entry): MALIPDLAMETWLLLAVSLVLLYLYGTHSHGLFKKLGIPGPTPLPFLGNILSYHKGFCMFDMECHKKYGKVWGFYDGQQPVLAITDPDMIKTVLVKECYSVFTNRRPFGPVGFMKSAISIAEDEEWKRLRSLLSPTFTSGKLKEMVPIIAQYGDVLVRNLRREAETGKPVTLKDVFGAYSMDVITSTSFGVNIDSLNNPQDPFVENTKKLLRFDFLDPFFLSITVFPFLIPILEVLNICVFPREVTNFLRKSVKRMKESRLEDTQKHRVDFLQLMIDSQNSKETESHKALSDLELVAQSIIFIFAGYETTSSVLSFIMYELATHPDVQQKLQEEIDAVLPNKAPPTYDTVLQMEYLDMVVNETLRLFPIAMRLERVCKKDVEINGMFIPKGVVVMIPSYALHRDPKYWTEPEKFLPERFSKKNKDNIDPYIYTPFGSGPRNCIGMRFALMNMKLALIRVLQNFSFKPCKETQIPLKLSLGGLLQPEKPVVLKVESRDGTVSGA
# T1 sequence (P35991 whole entry): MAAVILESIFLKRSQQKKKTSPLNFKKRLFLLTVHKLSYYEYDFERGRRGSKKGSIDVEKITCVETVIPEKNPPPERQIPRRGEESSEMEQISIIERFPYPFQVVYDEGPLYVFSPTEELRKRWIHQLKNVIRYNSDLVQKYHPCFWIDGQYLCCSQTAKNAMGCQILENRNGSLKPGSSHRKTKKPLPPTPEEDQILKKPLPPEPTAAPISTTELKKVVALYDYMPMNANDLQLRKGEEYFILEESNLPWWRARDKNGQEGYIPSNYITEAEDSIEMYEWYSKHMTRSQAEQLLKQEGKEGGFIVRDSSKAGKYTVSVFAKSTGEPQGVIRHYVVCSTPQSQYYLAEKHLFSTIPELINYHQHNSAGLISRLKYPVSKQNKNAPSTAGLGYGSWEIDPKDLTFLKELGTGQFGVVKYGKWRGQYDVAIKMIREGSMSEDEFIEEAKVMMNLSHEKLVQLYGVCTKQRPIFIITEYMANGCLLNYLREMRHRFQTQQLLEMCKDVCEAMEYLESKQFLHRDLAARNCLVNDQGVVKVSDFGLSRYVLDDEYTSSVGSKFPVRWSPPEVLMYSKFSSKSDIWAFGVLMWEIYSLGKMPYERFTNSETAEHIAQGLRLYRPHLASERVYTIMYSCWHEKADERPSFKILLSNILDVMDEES
structure (smiles),measurement,setting,value
"CC#CC(=O)N1CCC[C@H]1c1nc(-c2ccc(C(=O)Nc3ccccn3)cc2)c2c(N)nccn12 [Formula (2), (S)-4-(8-amino-3-(1-(but-2-ynoyl)pyrrolidin-2-yl)imidazo[1,5-a]pyrazin-1-yl)-N-(pyridin-2-yl)benzamide]",inhibition of expression of activation markers CD69 and CD86,[1],more potent at inhibiting expression of activation makers than Formula (10) (ibrutinib)
same,CD8+ T cell function as % cytotoxicity,CD8+ T cell [2],no effect on CD8^+ T cell function as measured by % cytotoxicity relative to vehicle
same,CD8+ T cell function as IFN-γ level,CD8+ T cell [3],no effect on CD8^+ T cell function as measured by IFN-γ level relative to vehicle
same,activity in binding assays on 80 known pharmacologic targets,[4],significant activity only against the A3 adenosine receptor
same,inhibition of in vitro EGFR phosphorylation,"[5]; 10 μM, A431 human epidermoid cancer cell line",no inhibition
same,inhibition at 10 µM,"[5]; Homo sapiens, A-431, A431 cells, 2 h, EGF 100 ng/mL 5 min",7%
same,CYP responsible for metabolism,CYP3A4,metabolized by CYP3A4
same,metabolites in hepatocytes,[6],two mono-oxidized metabolites and a glutathione conjugate
same,potential for clinical drug-drug interactions via CYP enzymes,CYP enzymes,very unlikely to cause clinical drug-drug interactions
same,tumor volumes versus vehicle,NSCLC (KrasLA2),significant decrease
same,irreversible BTK occupancy in granulocytic and monocytic MDSCs,BTK,Complete BTK occupancy
same,inhibition of trastuzumab-stimulated NK cell degranulation,[7],no inhibitory effect
same,"effect on rituximab-mediated ADCC, primary CLL samples (autologous)",[8],not inhibited
same,CD8+ T cell viability,CD8+ T cells,not observed
same,absolute lymphocyte count (ALC),CLL,much smaller relative increase and much faster decrease in absolute lymphocyte count (ALC)
